Test results: patent US20180362993A1, “ELICITOR-DERIVED PEPTIDES AND USE THEREOF” (Plant Health Care, Inc., priority 2017, published 2018)
Marks after values point to notes of the source that are not given here.

Assays:
Format in all cases: in vivo
[1] = system: tobacco mosaic virus (TMV); experiment: Induction of resistance to tobacco mosaic virus in tobacco (foliar spray); settings: for Effectiveness Covered (% decline in TMV lesions vs UTC): covered leaf (systemic response); for Effectiveness Uncovered (% decline in TMV lesions vs UTC): uncovered leaf (local response)
Procedure: Peptides were tested for the induction of resistance to tobacco mosaic virus (TMV) in tobacco. Briefly, three tobacco plants at 6-8 weeks old were selected per group (samples and controls). The bottom-most leaf of the plant was covered and the plant was sprayed with a solution of water (untreated control—UTC), peptide, or Proact (positive control). The spray was applied until the leaves were fully wetted, indicated by liquid dripping from the leaves. The plants were then allowed to dry and the leaf covering was removed.
Three days post-treatment, the previously-covered leaf and a leaf on the opposite side of the plant were then lightly dusted with diatomaceous earth and 20 ul of a 1.7 μg/ml solution of purified tobacco mosaic virus was applied. The TMV solution was then spread across the leaf surface by lightly rubbing solution and the diatomaceous earth across the surface of the leaves. Two minutes after inoculation, the diatomaceous earth was rinsed off the leaves with water. 3 days after TMV inoculation, the leaves were scored based on the number of TMV lesions observed. The leaf was also scored for signs of the hypersensitive response, including yellowing and wilting of the affected leaves.
Effectiveness described in Table 5 refers to the % decline in TMV lesions on treated vs UTC plants. A reduction of TMV on covered leaves indicates a systemic immune response in the plant while reduction on uncovered leaves indicates a local response. Asterisks indicate that the P-value derived from a T-test was <0.05.

soy [2] = experiment: Drought resistance in seed-treated soy; settings: vs mock
Procedure: The effectiveness of peptide treatment in reducing drought stress was assessed in soy using a seed treatment strategy. This strategy largely mirrors examples 3 and 4.
Seeds were first sieved using mesh screens to a uniform size (14-17 mesh). The seeds were then coated with a mixture of peptide and Unicoat™ seed coat polymer in a Hege 11 Liquid Seed Treater (Wintersteiger) according to manufacturer recommendations. […]
(§1) 3.5 inch pots were filled (approximately 0.2 L per pot) with Sunshine #1 mix (SunGro Horticulture), fertilized with 14-14-14 N,P,K Osmocote (Everris), and mixed for 20 minutes using a soil mixer M-5. Seeds were planted at a depth of 0.5 inch for germination. The pots were immediately irrigated by submergence then drained after about an hour. For each treatment group, 24 replicate seeds were planted. Plants were grown in a greenhouse under 16 hour light days at ˜75° F. and 8 hour dark nights at ˜65° F. Prior to drought conditions, the plants were well-watered.
(§2) Seven days after germination the heights of the plants were measured. This was determined as the distance between the soil surface and the shoot apical meristems (buds). The plants were randomized using a complete block design and subjected to a cyclic drought stress. Drought stress was imposed by withholding water for 3-4 days until the majority of plants were under medium to severe water stress. The severity of the stress was determined by the weight of the pot and visual determination of loss of turgor in the leaves (drooping). Once drought stress was attained, the pots were watered to full saturation. Full Saturation (100% pot capacity) is defined as the weight of the pot filled with water-saturated soil minus the weight of the filled pot prior to adding water. Drought stress was imposed for a total of 18 days.
At the end of the experiment (18 days after initiation of drought stress), the plant above the soil surface was then harvested for fresh and dry weights. Individual plants were cut near the soil surface and weighed immediately (fresh weight). The plants were then placed into labeled brown paper bags and dried in a 70° C. oven for 72 hours. A dry weight was then obtained. The following calculation was performed on the collected data: Fresh weight at harvest, and dry weight at harvest for the peptide-treated plants were expressed as a % change relative to the ‘mock’ treated plants.

corn [3] = experiment: Drought resistance in corn (foliar spray); settings: for Dry Weight Increase / Fresh Weight Increase: corn, vs untreated control
Procedure: The effectiveness of peptide treatment in reducing drought stress was assessed in corn. 3.5 inch pots were filled with Sunshine #1 soil (SunGro Horticulture), fertilized with a 20-10-20 mixture. The soil was soaked and drained overnight. Seeds (either corn or soy, manually inspected to ensure uniform seed size) were planted at a depth of 1 inch for germination. Plants were grown in a greenhouse under 16 hour light days at >70° F. and 8 hour dark nights at >65° F. Prior to drought conditions, the plants were well-watered.
When the plants reached the V1 stage, plants were culled to achieve a uniform height (abnormally large and small plants were removed). Plants were then randomly assigned to control (spray without peptide) or treatment (spray with peptide) groups and heights were measured. Peptide was made up in a solution of 0.2 μg/ml or 2μg/ml in distilled water+0.01% Tween-20, and applied as a fine mist from a spray bottle until the solution drips from the leaves. After the peptide solutions were dried, the plants were again randomized in a randomized complete block design. Drought stress was initiated after the peptide treatment. This was caused by maintaining the water level at 25-50% of the maximum capacity for water (capacity was decided as the weight of the pot filled with saturated soil minus the weight of the filled pot prior to adding water).
(§3) The drought test phase ended after 2-3 weeks. At that time, the plant height was again measured and the growth rate was calculated as the difference between this and the previously-recorded height. The above-ground part portions of the plants were harvested and weighed to obtain fresh weight. The above-ground portion was also dried in an oven at 70° C. for 72 hours to obtain dry weight. All calculations were compared with matched untreated control plants.
The drought testing procedure was carried out in corn using a treatment of P12, P13-10, P13-11, P13-12, P13-14, P13-4, and P13-15 (SEQ ID NOs: 5, 16, 17, 18, 20, 10, and 21). Asterisks indicate statistical significance by P-value (*: P<0.1 and **: P<0.05)

soy [4] = experiment: Drought resistance in soy (foliar spray); settings: foliar spray 0.2 μg/ml, vs untreated control
Procedure: The effectiveness of peptide treatment in reducing drought stress was assessed in […]. 3.5 inch pots were filled with Sunshine #1 soil (SunGro Horticulture), fertilized with a 20-10-20 mixture. The soil was soaked and drained overnight. Seeds (soy, manually inspected to ensure uniform seed size) were planted at a depth of half inch for germination. Plants were grown in a greenhouse under 16 hour light days at >70° F. and 8 hour dark nights at >65° F. Prior to drought conditions, the plants were well-watered.
When the plants reached the growth stage when first trifoliate expanded, plants were culled to achieve a uniform height (abnormally large and small plants were removed). Plants were then randomly assigned to control (spray without peptide) or treatment (spray with peptide) groups and heights were measured. Peptide was made up in a solution of 0.2 μg/ml or 2μg/ml in distilled water+0.04% Tween-20, and applied as a fine mist from a spray bottle until the solution drips from the leaves. After the peptide solutions were dried, the plants were again randomized in a randomized complete block design. Cyclic drought stress was initiated after the peptide treatment. Plants were subjected to at least three drought cycles of drought stress (3-5 days of withholding water and 1 day irrigated with saturating amount of water) before harvesting.
as §3
The drought testing procedure was carried out in soy using a treatment of P12-2, P13-4, P13-5, P13-7, P13-3, P13-14, P13-2, and P13-15 (SEQ ID NOs: 6, 10, 11, 13, 9, 20, 8, and 21). Asterisks indicate statistical significance by P-value (*: P<0.1 and **: P<0.05)

corn [5] = experiment: Drought resistance in seed-coated corn; settings: vs mock
Procedure: The effectiveness of peptide treatment in reducing the effects of drought stress was assessed in corn using a seed treatment strategy. This strategy largely mirrors example 2, except that the seeds were coated with a peptide formulation rather than a foliar spray application.
Seeds were first sieved using mesh screens to a uniform size (21-23/64 inches). The seeds were then coated with a mixture of peptide, Unicoat™ seed coat polymer, and a minimal volume of water in a Hege 11 Liquid Seed Treater (Wintersteiger) according to manufacturer recommendations. Seeds were coated with one of the following: (i) 0.12 μg peptide/seed, (ii) […], or (iii) a ‘mock’ treatment that included no peptide. The amount of peptide per seed assumes complete transfer of the peptide to seed surfaces in the seed coating chamber. Losses during coating were not considered.
as §1
as §2, with “Three” for “Seven”, “planting,” for “germination”, “the” for “the heights of the plants were measured. This was determined as the distance between the soil surface and the shoot apical meristems (buds). The”, “2-3” for “3-4”, “leaf curling.” for “loss of turgor in the leaves (drooping).”
At the end of the experiment (18 days after initiation of drought stress), the plant was then harvested for fresh and dry weights. Individual plants were cut near the soil surface and weighed immediately (fresh weight). The plants were then placed into labeled brown paper bags and dried in a 70° C. oven for 72 hours. A dry weight was then obtained.
The following calculation was performed on the collected data: Fresh weight at harvest and dry weight at harvest for the plants grown from peptide-treated seeds were expressed as a % change relative to the ‘mock’ treated plants.

[6] = corn seed treatment 0.12 μg/seed
[7] = corn seed treatment 1.05 μg/seed

| Sequence | Effectiveness Covered (% decline in TMV lesions vs UTC) ([1]; 20 μg/ml spray) [%] | Effectiveness Uncovered (% decline in TMV lesions vs UTC) ([1]; 20 μg/ml spray) | Dry Weight Increase (corn [3]; foliar spray 2 μg/ml) | Fresh Weight Increase (corn [3]; foliar spray 2 μg/ml) | % Change Dry Weight (soy [2]; soy seed treatment 0.9 μg/seed) [%] | % Change Fresh Weight (soy [2]; soy seed treatment 0.9 μg/seed) [%] | Dry Weight Increase (corn [3]; foliar spray 0.2 μg/ml) | Fresh Weight Increase (corn [3]; foliar spray 0.2 μg/ml) | further results |
| --- | --- | --- | --- | --- | --- | --- | --- | --- | --- |
| QTGDDSLSGAGQTSGMSPMEQLMKIFADITQSLFGDQ (P13-13 peptide) [Peptide P13-13] | 38.5 | 36.6% |  |  |  |  |  |  |  |
| DDSLSGAGQTSGMSPMEQLMKIFADITQSLFGDQDG (P13-10 peptide) [Peptide P13-10] | 92.4 | 90.6* % | 7.56* % | 4.44% |  |  |  |  | % Change Dry Weight (soy [2]; soy seed treatment 0.1 μg/seed): −1.66%; % Change Fresh Weight (soy [2]; soy seed treatment 0.1 μg/seed): 1.01% |
| LSGAGQTSGMSPMEQLMKIFADITQSLFGDQDG (P13-11 peptide) [Peptide P13-11] | 73.1 | 74.9* % |  |  | 0.16 | 3.42 | 4.91* % | 3.81* % |  |
| AGQTSGMSPMEQLMKIFADITQSLFGDQDG (P13-12 peptide) [Peptide P13-12] | 37.9 | 44.1% |  |  | −0.37 | 0.77 | 7.31* % | 3.93* % | Drought tolerance activity in corn, result in words (corn [3]; corn foliar spray): affords activity |
| QTGDDSLSGAGQTSGMSPMEQLMKIFADITQSLFG (P13-14 peptide) [Peptide P13-14] |  |  | 2.48% | 4.36* % |  |  |  |  | Dry Weight Increase (soy [4]): −3.68** %; Fresh Weight Increase (soy [4]): −2.86%; % Change Dry Weight (corn [5]; [6]): 3.77%; % Change Fresh Weight (corn [5]; [6]): 9.11** %; % Change Dry Weight (corn [5]; [7]): 7.92** %; % Change Fresh Weight (corn [5]; [7]): 11.83** % |
| QTGDDSLSGAGQTSGMSPMEQLMKIFADITQSLFGDQDG (P12 peptide) [Peptide P12] |  |  | 6.28** % | 4.87* % |  |  |  |  | Effectiveness Covered (% decline in TMV lesions vs UTC) ([1]; 10 μg/ml spray): 66* %; Effectiveness Uncovered (% decline in TMV lesions vs UTC) ([1]; 10 μg/ml spray): 53* % |
